Values quoted from earlier work, collected in patent US20230065168A1, “[…] COMBINATION WITH A REPLICATION-DEFICIENT TYPE 5 […] EXPRESSION OF INTERFERON GAMMA FOR THE TREATMENT OF SKIN CANCER” (ASCEND BIOPHARMACEUTICALS LTD, priority 2021, published 2023).

SMILES: CS(=O)(=O)c1ccc(C(=O)Nc2ccc(Cl)c(-c3ccccn3)c2)c(Cl)c1 [vismodegib, 2-Chloro-N-(4-chloro-3-(pyridin-2-yl)phenyl)-4-(methylsulfonyl)benzamide]
- time at which adverse events generally begin to manifest (oral daily treatment): 6-8 weeks
- adverse events commonly associated with administration (patients with advanced BCC): muscle spasms, alopecia, dysgeusia, weight loss, fatigue, nausea, diarrhea, decreased appetite, constipation, arthralgia, vomiting, and ageusia
